Data on ten compounds can be found in patent publication US20260200903A1, “PHARMACEUTICAL COMPOSITION FOR AMELIORATING MALIGNANT DISEASES” (KINKI UNIVERSITY, priority 2020, published 2026).

As usually defined, the IC50 is the concentration that gives 50% inhibition.

For assay [1], the system named is immunoglobulin free λ light chain. Kind of assay: Immunoglobulin free λ light chain secretion in L363 cells, ELISA. Conditions: L363 culture supernatant after 10 days, control 145 μg/L. It is filed as cell-based, human. The procedure:
The inhibitory effect of each compound on immunoglobulin free λ light chain secretion was examined by enzyme-linked immunosorbent assay (ELISA) using L363 cells.
(§1) As a control, compounds untreated L363 cells were seeded in 75 cm^2 flasks and incubated for 10 days at 37° C. and 5% CO2. L363 cells were seeded into 75 cm^2 flasks and pre-cultured for 4 h. After incubation, L363 cells were treated with 0.1 μM M7, 0.05 μM M9, 0.1 μM yk-7, 0.1 μM yk-8-3, 50 μM yk-8-1, 0.1 μM M11, 0.01 μM M12, 0.005 μM M14, 0.005 μM M15, 0.005 μM M16, 1 μM M18, and 1 μM M19 at final concentrations, and incubated for 10 days at 37° C. and 5% CO2. After 10 days of incubation, the culture supernatant was collected and immunoglobulin free λ light chain secretion was measured by ELISA. This measurement was performed using a human anti-λ chain antibody ELISA kit (Funakoshi).
Background: An ELISA detects its analyte on a solid surface through an enzyme-linked reagent.

Assay [2] has the same test system. Description: Immunoglobulin free λ light chain secretion in KMS-28BM cells, ELISA. It is filed as cell-based, human. To be noted: KMS-28BM culture supernatant after 10 days, control 48 μg/L. The procedure:
The inhibitory effect of each compound on immunoglobulin free λ light chain secretion was examined by enzyme-linked immunosorbent assay (ELISA) using KMS-28BM cells.
(§2) As a control, compounds untreated KMS-28BM cells were seeded in 75 cm^2 flasks and incubated for 10 days at 37° C. and 5% CO2. KMS-28BM cells were seeded into 75 cm^2 flasks and pre-cultured for 4 h. After incubation, KMS-28BM cells were treated with […], 0.05 μM M9, 0.1 μM yk-7, 0.1 μM yk-8-3, 50 μM yk-8-1, 0.5 μM M11, […], 0.005 μM M14, 0.005 μM M15, 0.005 μM M16, 0.5 μM M18, and 0.5 μM M19 at final concentrations, and incubated for 10 days at 37° C. and 5% CO2. After 10 days of incubation, the culture supernatant was collected and immunoglobulin free λ light chain secretion was measured by ELISA. This measurement was performed using a human anti-λchain antibody ELISA kit (Funakoshi).

For assay [3], the system named is HUT-78 cells (peripheral T lymphoma cell line). Kind of assay: Cell death inducing effect on HUT-78 cells, trypan blue staining. It is filed as cell-based. To be noted: HUT-78 (peripheral T-cell lymphoma), cell viability. The procedure:
HUT-78 cells (peripheral T lymphoma cell line) were cultured under 5% CO2 at 37° C.
The culture medium used RPMI-1640 medium with 100 μg/mL penicillin, 100 U/mL streptomycin and fetal bovine serum. HUT-78 cells were seeded into 96-well plates and incubated with each concentration of the compounds was added, and cell viability was determined by the trypan blue staining.
(§3) For controls, only 0.5% DMSO (diluted in PBS) used to dissolve the compounds was added. For each concentration, the codes “5, 6, 7, 8, 9, 10, 11, 12” and arrows are shown from left to right. The sign “5” is the M9 (formula (5)) administration group, the sign “6” is the M11 (formula (6)) administration group, the sign “7” is the M12 (formula (7)) administration group, the sign “8” is the M14 (formula (8)) administration group, the sign “9” is the M15 (formula (9)) administration group, the sign “10” is the M16 (formula (10)) administration group, the sign “11” is the M18 (formula (11)) administration group, the sign “12” is the M19 (formula (12)) administration group, respectively. The IC50 values for each compound is also listed in the upper right corner of the figure.

Assay [4] relates to MEC-1 cells (chronic lymphocytic leukemia cell line). Kind of assay: Cell death inducing effect on MEC-1 cells, trypan blue staining. To be noted: MEC-1 (CLL), cell viability. The assay is classed as cell-based. How it is done: MEC-1 cells (chronic lymphocytic leukemia cell line) were cultured under 5% CO2 at 37° C. The culture medium used RPMI-1640 medium with 100 μg/mL penicillin, 100 U/mL streptomycin and fetal bovine serum. MEC-1 cells were seeded into 96-well plates and incubated with each concentration of the compounds was added, and cell viability was determined by the trypan blue staining.
as §3

For assay [5], the system named is ATN-1 cells (adult T cell leukemia cell line). Kind of assay: Cell death inducing effect on ATN-1 cells, trypan blue staining. The assay is classed as cell-based. Conditions: ATN-1 (ATL), cell viability. How it is done:
ATN-1 cells (adult T cell leukemia cell line) were cultured under 5% CO2 at 37° C. The culture medium used RPMI-1640 medium with 100 μg/mL penicillin, 100 U/mL streptomycin and fetal bovine serum. ATN-1 cells were seeded into 96-well plates and incubated with each concentration of the compounds was added, and cell viability was determined by the trypan blue staining.
as §3

The test system of the next assay is IL-6. Kind of assay: IL-6 secretion in KMS-28BM cells, Luminex. Conditions: KMS-28BM culture supernatant after 10 days; compounds at 0.005-50 μM; control 143 μg/mL. It is filed as cell-based, human. The procedure:
The inhibitory effect of each compound on IL-6 secretion was examined using Luminex in KMS-28BM cells.
as §2, with “the” for “immunoglobulin free λ light chain”, “secretion of IL-6, a bone destruction-related factor and a growth-promoting factor,” for “secretion”, “Luminex. The human Magnetic Luminex Assay (R&D)” for “ELISA. This measurement”, “used for this measurement.” for “performed using a human anti-λchain antibody ELISA kit (Funakoshi).”

The test system of another assay is MIP-1α. Description: MIP-1α secretion in L363 cells, Luminex. The assay is classed as cell-based, human. To be noted: L363 culture supernatant after 10 days; compounds at 0.005-50 μM; control 266 μg/mL. How it is done: The inhibitory effect of each compound on MIP-1α secretion was examined using Luminex in L363 cells.
as §1, with “the” for “immunoglobulin free λ light chain”, “secretion of MIP-la, a bone destruction-related factor and a growth-promoting factor,” for “secretion”, “Luminex. The human Magnetic Luminex Assay (R&D)” for “ELISA. This measurement”, “used for this measurement.” for “performed using a human anti-λ chain antibody ELISA kit (Funakoshi).”

For `CCC(=O)OC[C@H]1O[C@@H](c2c(OC(=O)CC)cc3oc4cc(OC(=O)CC)c(OC(=O)CC)cc4c(=O)c3c2OC(=O)CC)[C@H](OC(=O)CC)[C@@H](OC(=O)CC)[C@@H]1OC(=O)CC` [Compound M7, 1,3,2′,3′,4′,6,6′,7-octa-O-propionylmangiferin], the λ chain secretion came out at 2.3e+07 µg/L in assay [1] (M7 group, unit printed g/L) and 2.1e+06 µg/L in assay [2] (M7 group, unit printed g/L).
As for `CCC(=O)OC[C@H]1O[C@@H](c2c(O)cc3oc4cc(O)c(O)cc4c(=O)c3c2O)[C@H](OC(=O)CC)[C@@H](OC(=O)CC)[C@@H]1OC(=O)CC` [Compound M9, 2′,3′,4′,6′-tetra-O-propionylmangiferin], the IC50 in assay [3] (Homo sapiens, HuT78) is 925 nM; in assay [4] (Homo sapiens, MEC1), 454 nM; in assay [5] (Homo sapiens), 589 nM.
Regarding `CCCC(=O)OC[C@H]1O[C@@H](c2c(OC(=O)CCC)cc3oc4cc(OC(=O)CCC)c(OC(=O)CCC)cc4c(=O)c3c2OC(=O)CCC)[C@H](OC(=O)CCC)[C@@H](OC(=O)CCC)[C@@H]1OC(=O)CCC` [Compound M11, 1,3,2′,3′,4′,6,6′,7-octa-O-butyrylmangiferin], the IL-6 secretion in the assay on IL-6 stood at 12 µg/mL. Also, the results for the IC50 in assay [3], in assay [4] and in assay [5] were 905 nM, 575 nM and 1850 nM, respectively. In addition, the λ chain secretion came out at 11 µg/L in assay [1] (compounds at 0.005-50 μM) and 1.1 µg/L in assay [2] (compounds at 0.005-50 μM). For the same compound, in the assay on MIP-1α, the MIP-1α secretion was determined as 6 µg/mL.
As for `CCCC(=O)OC[C@H]1O[C@@H](c2c(O)cc3oc4cc(O)c(O)cc4c(=O)c3c2OC(=O)CCC)[C@H](OC(=O)CCC)[C@@H](OC(=O)CCC)[C@@H]1OC(=O)CCC` [Compound M12, 1,2′,3′,4′,6-penta-O-butyrylmangiferin], the 50% inhibitory concentration (IC50) is 21 nM in assay [3] (Homo sapiens, HuT78); 12 nM in assay [4] (Homo sapiens, MEC1); 15 nM in assay [5] (Homo sapiens).
With `CCCC(=O)OC[C@H]1O[C@@H](c2c(O)cc3oc4cc(O)c(O)cc4c(=O)c3c2O)[C@H](OC(=O)CCC)[C@@H](OC(=O)CCC)[C@@H]1OC(=O)CCC` [Compound M14, 2′,3′,4′,6′-tetra-O-butyrylmangiferin], the IC50 was determined as 8 nM in assay [3] (Homo sapiens, HuT78); 8 nM in assay [4] (Homo sapiens, MEC1); 8 nM in assay [5] (Homo sapiens).
As for `CC(C)(C)C(=O)OC[C@H]1O[C@@H](c2c(O)cc3oc4cc(O)c(O)cc4c(=O)c3c2O)[C@H](OC(=O)C(C)(C)C)[C@@H](OC(=O)C(C)(C)C)[C@@H]1OC(=O)C(C)(C)C` [Compound M15, 2′,3′,4′,6′-tetra-O-pivaloylmangiferin], the IC50 was determined as 22 nM in assay [3] (Homo sapiens, HuT78); 9 nM in assay [4] (Homo sapiens, MEC1); 11 nM in assay [5] (Homo sapiens).
In the case of `CCCCO[C@@H]1[C@@H](OCCCC)[C@H](c2c(O)cc3oc4cc(O)c(O)cc4c(=O)c3c2O)O[C@H](COC(=O)CCC)[C@H]1OC(=O)CCC` [Compound M16, 2′,3′-di-O-butyl-4′,6′-di-O-butyrylmangiferin], the IC50 in assay [3] (Homo sapiens, HuT78) turned out to be 9 nM; in assay [4] (Homo sapiens, MEC1), 7 nM; in assay [5] (Homo sapiens), 7 nM.
On to `O=c1c2cc(O)c(O)cc2oc2cc(O)cc(OCCO)c12` [Compound M18, 3,6,7-trihydroxy-1-(2-hydroxyethoxy)-9H-xanthen-9-one], for which the IC50 in assay [3] (Homo sapiens, HuT78) worked out at 4540 nM; in assay [4] (Homo sapiens, MEC1) it was 3120 nM; in assay [5] (Homo sapiens), 2890 nM.
For `C=CCOc1cc(O)cc2oc3cc(O)c(O)cc3c(=O)c12` [Compound M19, 1-allyloxy-3,6,7-trihydroxy-9H-xanthen-9-one] the same measures were 6740 nM, 6890 nM and 4520 nM.
`CCCCC(=O)OC[C@H]1O[C@@H](c2c(OC(=O)CCCC)cc3oc4cc(OC(=O)CCCC)c(OC(=O)CCCC)cc4c(=O)c3c2OC(=O)CCCC)[C@H](OC(=O)CCCC)[C@@H](OC(=O)CCCC)[C@@H]1OC(=O)CCCC` [yk-8-1, 1,3,2′,3′,4′,6,6′,7-octa-O-valerylmangiferin]: in the assay on IL-6, the IL-6 secretion was found to be 84 µg/mL. Moreover, the λ chain secretion in assay [1] (compounds at 0.005-50 μM) was 119 µg/L; in assay [2] (compounds at 0.005-50 μM), 35 µg/L. The compound further registered an MIP-1α secretion in the assay with MIP-1α of 179 µg/mL.
